Experimental data taken from ChEMBL document CHEMBL4627246, “Pyroglutamide-Based P2X7 Receptor Antagonists Targeting Inflammatory Bowel Disease” (J Med Chem, 2020).

Experiments:
Assay type in all cases: cell-based
A549 = assay: Cytotoxicity against human A549/ATCC cells assessed as effect on cell growth at 10 uM incubated for 48 hrs by sulforhodamine B assay; details: a549, 48 h
SR = assay: Cytotoxicity against human SR cells assessed as effect on cell growth at 10 uM incubated for 48 hrs by sulforhodamine B assay
HOP-92 = assay: Cytotoxicity against human HOP92 cells assessed as effect on cell growth at 10 uM incubated for 48 hrs by sulforhodamine B assay; details: hop-92, 48 h
NCI-H226 = assay: Cytotoxicity against human NCI-H226 cells assessed as effect on cell growth at 10 uM incubated for 48 hrs by sulforhodamine B assay; details: nci-h226, 48 h
NCI-H23 = assay: Cytotoxicity against human NCI-H23 cells assessed as effect on cell growth at 10 uM incubated for 48 hrs by sulforhodamine B assay; details: nci-h23, 48 h
NCI-H322M = assay: Cytotoxicity against human NCI-H322M cells assessed as effect on cell growth at 10 uM incubated for 48 hrs by sulforhodamine B assay
COLO 205 = assay: Cytotoxicity against human COLO205 cells assessed as effect on cell growth at 10 uM incubated for 48 hrs by sulforhodamine B assay; details: colo 205, 48 h
HCC 2998 = assay: Cytotoxicity against human HCC2998 cells assessed as effect on cell growth at 10 uM incubated for 48 hrs by sulforhodamine B assay; details: hcc 2998, 48 h
HT-29 = assay: Cytotoxicity against human HT-29 cells assessed as effect on cell growth at 10 uM incubated for 48 hrs by sulforhodamine B assay; details: ht-29, 48 h
SW-620 = assay: Cytotoxicity against human SW620 cells assessed as effect on cell growth at 10 uM incubated for 48 hrs by sulforhodamine B assay; details: sw-620, 48 h
SF-268 = assay: Cytotoxicity against human SF268 cells assessed as effect on cell growth at 10 uM incubated for 48 hrs by sulforhodamine B assay; details: sf-268, 48 h
SF-539 = assay: Cytotoxicity against human SF539 cells assessed as effect on cell growth at 10 uM incubated for 48 hrs by sulforhodamine B assay; details: sf-539, 48 h
SK-MEL-28 = assay: Cytotoxicity against human SK-MEL-28 cells assessed as effect on cell growth at 10 uM incubated for 48 hrs by sulforhodamine B assay; details: sk-mel-28, 48 h
OVCAR-5 = assay: Cytotoxicity against human OVCAR5 cells assessed as effect on cell growth at 10 uM incubated for 48 hrs by sulforhodamine B assay; details: ovcar-5, 48 h
OVCAR-8 = assay: Cytotoxicity against human OVCAR8 cells assessed as effect on cell growth at 10 uM incubated for 48 hrs by sulforhodamine B assay; details: ovcar-8, 48 h
786-0 = assay: Cytotoxicity against human 786-0 cells assessed as effect on cell growth at 10 uM incubated for 48 hrs by sulforhodamine B assay; details: 786-0, 48 h
A498 = assay: Cytotoxicity against human A498 cells assessed as effect on cell growth at 10 uM incubated for 48 hrs by sulforhodamine B assay; details: a498, 48 h
SN12C = assay: Cytotoxicity against human SN12C cells assessed as effect on cell growth at 10 uM incubated for 48 hrs by sulforhodamine B assay
MDA-MB-231 = assay: Cytotoxicity against human MDA-MB-231 cells assessed as effect on cell growth at 10 uM incubated for 48 hrs by sulforhodamine B assay; details: mda-mb-231, 48 h
BT-549 = assay: Cytotoxicity against human BT549 cells assessed as effect on cell growth at 10 uM incubated for 48 hrs by sulforhodamine B assay; details: bt-549, 48 h

Measured: Activity

CN(C)/C=C1\C[C@H]2C(=O)N(/C(=C/N(C)C)c3ccncc3)C(N(C)C)N2C1=O (stereo not given in full)
Non-Toxic: A549 | SR | HOP-92 | NCI-H226 | NCI-H23 | NCI-H322M | COLO 205 | HCC 2998 | HT-29 | SW-620 | SF-268 | SF-539 | SK-MEL-28 | OVCAR-5 | OVCAR-8 | 786-0 | A498 | SN12C | MDA-MB-231 | BT-549

COc1cc(CNC(=O)[C@@H]2CCC(=O)N2)cc(OC)c1OC
Non-Toxic: A549 | SR | HOP-92 | NCI-H226 | NCI-H23 | NCI-H322M | COLO 205 | HCC 2998 | HT-29 | SW-620 | SF-268 | SF-539 | SK-MEL-28 | OVCAR-5 | OVCAR-8 | 786-0 | A498 | SN12C | MDA-MB-231 | BT-549

O=C1N[C@H](C(=O)NCc2ccc(Cl)cc2Cl)CO1
Non-Toxic: A549 | SR | HOP-92 | NCI-H226 | NCI-H23 | NCI-H322M | COLO 205 | HCC 2998 | HT-29 | SW-620 | SF-268 | SF-539 | SK-MEL-28 | OVCAR-5 | OVCAR-8 | 786-0 | A498 | SN12C | MDA-MB-231 | BT-549

O=C(NCc1ccc(Cl)cc1Cl)[C@@H]1COC(=O)N1c1cccs1
Non-Toxic: A549 | SR | HOP-92 | NCI-H226 | NCI-H23 | NCI-H322M | COLO 205 | HCC 2998 | HT-29 | SW-620 | SF-268 | SF-539 | SK-MEL-28 | OVCAR-5 | OVCAR-8 | 786-0 | A498 | SN12C | MDA-MB-231 | BT-549
